Data as given in US20100029665A1, “Methods and Compositions for Treating Migraine Pain” (priority 2004, published 2010).

Assays:
[1] = Release profile (cumulative fraction released) of a memantine and dihydroergotamine combination, USP II Paddle system, water; format: physicochemical
Source text: The cumulative fraction is the amount of drug substance released from the formulation matrix to the serum or gut environment (e.g., U.S. Pat. No. 4,839,177) or as measured with a USP II Paddle system using water as the dissolution medium.

[2] = head of release table, Example 3; cited from earlier work
[3] = humans; cited from earlier work

Compound	cum. fraction ([1]; Time 1)	cum. fraction ([1]; Time 2)	cum. fraction ([1]; Time 4)	cum. fraction ([1]; Time 8)	cum. fraction ([1]; Time 12)	cum. fraction ([1]; Time 16)	cum. fraction ([1]; Time 20)	cum. fraction ([1]; Time 24)	T½ [2]	Dose Dependent Tox [3]
CC12CC3CC(C)(C1)CC(N)(C3)C2 [Memantine, 1-amino-3,5-dimethyladamantane]	0.15	0.30	0.45	0.60	0.75	0.90	0.98	0.99		
CN1C[C@H](C(=O)N[C@]2(C)O[C@@]3(O)[C@@H]4CCCN4C(=O)[C@H](Cc4ccccc4)N3C2=O)C[C@@H]2c3cccc4[nH]cc(c34)C[C@H]21 [DIHYDROERGOTAMINE, dihydroergotamine]	0.15	0.30	0.45	0.60	0.75	0.90	0.98	0.99	T½ = 15 hrs	
CC(N)C12CC3CC(CC(C3)C1)C2 (stereo not drawn) [Rimantadine, 1-(1-aminoethyl)adamantane]										Insomnia
